Tested on: Acinetobacter baumannii strains
Test: Antibiotic susceptibility test (CLSI disk diffusion test method, read per CLSI 2016); on antibiotic susceptibility S/I/R: key: ‘S’ means susceptible; ‘I’ means intermediate; ‘R’ means resistant; on susceptibility category (S/I/R): key: ‘S’ means susceptible; ‘I’ means intermediate; ‘R’ means resistant
Assay type: cell-based
Design: antibiotic susceptibility test value / susceptibility test value (number given before S/I/R) / antibiotic susceptibility value: unit not given here

## ampicillin-sulbactam
Host strain YMC16/01/R123
  antibiotic susceptibility value: 32
  susceptibility category (S/I/R): R
  susceptibility test value (number given before S/I/R): 32
Host strain YMC16/01/R198
  antibiotic susceptibility S/I/R: S
  antibiotic susceptibility value: 8
  susceptibility category (S/I/R): S
  susceptibility test value (number given before S/I/R): 8
Host strain YMC16/01/R353
  antibiotic susceptibility value: 16
  susceptibility category (S/I/R): I
  susceptibility test value (number given before S/I/R): 16
Host strain YMC16/01/R380
  antibiotic susceptibility S/I/R: R
  antibiotic susceptibility value: 32
  susceptibility category (S/I/R): R
  susceptibility test value (number given before S/I/R): 32
Host strain YMC16/01/R397
  antibiotic susceptibility S/I/R: R
  antibiotic susceptibility value: 32
  susceptibility category (S/I/R): R
  susceptibility test value (number given before S/I/R): 32
Host strain YMC16/01/R405
  antibiotic susceptibility value: 16
  susceptibility category (S/I/R): I
  susceptibility test value (number given before S/I/R): 16
Host strain YMC16/03/R4461
  antibiotic susceptibility S/I/R: S
  antibiotic susceptibility value: 4
  susceptibility category (S/I/R): S
  susceptibility test value (number given before S/I/R): 4
Host strain YMC16/05/R2210
  antibiotic susceptibility value: 16
  susceptibility category (S/I/R): I
  susceptibility test value (number given before S/I/R): 16
Host strain YMC16/07/R2512
  antibiotic susceptibility value: 16
  susceptibility category (S/I/R): I
  susceptibility test value (number given before S/I/R): 16
Host strain YMC16/09/R2471
  antibiotic susceptibility S/I/R: R
  antibiotic susceptibility value: 32
  susceptibility category (S/I/R): R
  susceptibility test value (number given before S/I/R): 32
Host strain YMC16/10/R2537
  antibiotic susceptibility value: 16
  susceptibility category (S/I/R): I
  susceptibility test value (number given before S/I/R): 16
Host strain YMC16/12/B11422
  antibiotic susceptibility S/I/R: R
  antibiotic susceptibility value: 32
  susceptibility category (S/I/R): R
  susceptibility test value (number given before S/I/R): 32
Host strain YMC16/12/B11449
  antibiotic susceptibility S/I/R: R
  antibiotic susceptibility value: 32
  susceptibility category (S/I/R): R
  susceptibility test value (number given before S/I/R): 32
Host strain YMC16/12/B13325
  antibiotic susceptibility value: 16
  susceptibility category (S/I/R): I
  susceptibility test value (number given before S/I/R): 16
Host strain YMC16/12/P503
  antibiotic susceptibility S/I/R: R
  antibiotic susceptibility value: 32
  susceptibility category (S/I/R): R
  susceptibility test value (number given before S/I/R): 32
Host strain YMC16/12/R4637
  antibiotic susceptibility S/I/R: R
  antibiotic susceptibility value: 32
  susceptibility category (S/I/R): R
  susceptibility test value (number given before S/I/R): 32
Host strain YMC17/01/B8053
  antibiotic susceptibility S/I/R: S
  antibiotic susceptibility value: 8
  susceptibility category (S/I/R): S
  susceptibility test value (number given before S/I/R): 8
Host strain YMC17/01/B10087
  antibiotic susceptibility value: 16
  susceptibility category (S/I/R): I
  susceptibility test value (number given before S/I/R): 16
Host strain YMC17/01/B12075
  antibiotic susceptibility value: 16
  susceptibility category (S/I/R): I
  susceptibility test value (number given before S/I/R): 16
Host strain YMC17/01/B13454
  antibiotic susceptibility S/I/R: R
  antibiotic susceptibility value: 32
  susceptibility category (S/I/R): R
  susceptibility test value (number given before S/I/R): 32
Host strain YMC17/01/P518
  antibiotic susceptibility value: 16
  susceptibility category (S/I/R): I
  susceptibility test value (number given before S/I/R): 16
Host strain YMC17/01/R2812
  antibiotic susceptibility S/I/R: R
  antibiotic susceptibility value: 32
  susceptibility category (S/I/R): R
  susceptibility test value (number given before S/I/R): 32
Host strain YMC17/02/B14
  antibiotic susceptibility S/I/R: R
  antibiotic susceptibility value: 32
  susceptibility category (S/I/R): R
  susceptibility test value (number given before S/I/R): 32
Host strain YMC17/02/B87
  antibiotic susceptibility value: 16
  susceptibility category (S/I/R): I
  susceptibility test value (number given before S/I/R): 16
Host strain YMC17/02/B721
  antibiotic susceptibility S/I/R: R
  antibiotic susceptibility value: 32
  susceptibility category (S/I/R): R
  susceptibility test value (number given before S/I/R): 32
Host strain YMC17/02/B4039
  antibiotic susceptibility S/I/R: R
  antibiotic susceptibility value: 32
  susceptibility category (S/I/R): R
  susceptibility test value (number given before S/I/R): 32
Host strain YMC17/02/B4520
  antibiotic susceptibility S/I/R: R
  antibiotic susceptibility value: 32
  susceptibility category (S/I/R): R
  susceptibility test value (number given before S/I/R): 32
Host strain YMC17/02/B4864
  antibiotic susceptibility S/I/R: S
  antibiotic susceptibility value: 2
  susceptibility category (S/I/R): S
  susceptibility test value (number given before S/I/R): 2
Host strain YMC17/02/B8414
  antibiotic susceptibility value: 16
  susceptibility category (S/I/R): I
  susceptibility test value (number given before S/I/R): 16
Host strain YMC17/02/P523
  antibiotic susceptibility value: 16
  susceptibility category (S/I/R): I
  susceptibility test value (number given before S/I/R): 16
Host strain YMC17/02/R541
  antibiotic susceptibility S/I/R: R
  antibiotic susceptibility value: 32
  susceptibility category (S/I/R): R
  susceptibility test value (number given before S/I/R): 32
Host strain YMC17/02/R2392
  antibiotic susceptibility S/I/R: R
  antibiotic susceptibility value: 32
  susceptibility category (S/I/R): R
  susceptibility test value (number given before S/I/R): 32
Host strain YMC17/03/B4730
  antibiotic susceptibility value: 16
  susceptibility category (S/I/R): I
  susceptibility test value (number given before S/I/R): 16
Host strain YMC17/03/B5000
  antibiotic susceptibility S/I/R: R
  antibiotic susceptibility value: 32
  susceptibility category (S/I/R): R
  susceptibility test value (number given before S/I/R): 32
Host strain YMC17/03/P971
  antibiotic susceptibility S/I/R: S
  antibiotic susceptibility value: 8
  susceptibility category (S/I/R): S
  susceptibility test value (number given before S/I/R): 8
Host strain YMC17/03/R348
  antibiotic susceptibility value: 16
  susceptibility category (S/I/R): I
  susceptibility test value (number given before S/I/R): 16
Host strain YMC17/03/R585
  antibiotic susceptibility S/I/R: R
  antibiotic susceptibility value: 32
  susceptibility category (S/I/R): R
  susceptibility test value (number given before S/I/R): 32
Host strain YMC17/03/R1888
  antibiotic susceptibility S/I/R: S
  antibiotic susceptibility value: 8
  susceptibility category (S/I/R): S
  susceptibility test value (number given before S/I/R): 8
Host strain YMC17/03/R3279
  antibiotic susceptibility value: 16
  susceptibility category (S/I/R): I
  susceptibility test value (number given before S/I/R): 16
Host strain YMC17/03/R4077
  antibiotic susceptibility value: 16
  susceptibility category (S/I/R): I
  susceptibility test value (number given before S/I/R): 16
Host strain YMC17/03/R4607
  antibiotic susceptibility value: 16
  susceptibility category (S/I/R): I
  susceptibility test value (number given before S/I/R): 16
Host strain YMC17/04/R488
  antibiotic susceptibility value: 16
  susceptibility category (S/I/R): I
  susceptibility test value (number given before S/I/R): 16
Host strain YMC17/04/R640
  antibiotic susceptibility value: 16
  susceptibility category (S/I/R): I
  susceptibility test value (number given before S/I/R): 16
Host strain YMC/17/05/R1095
  antibiotic susceptibility value: 16
  susceptibility category (S/I/R): I
  susceptibility test value (number given before S/I/R): 16
